The structures appear in SMILES notation. pIC50: −log10 of the molar value.

By pIC50 is commonly meant −log10 of the IC50, conventionally taken in molar units.

For test [1], the target named is Epidermal growth factor receptor (Homo sapiens, UniProt P00533). Briefly: Inhibition of human EGFR using biotin-aminohexyl-AEEEEYFELVAKKK as substrate preincubated for 15 mins followed by substrate/ATP addition measured after 20 mins by FRET assay.
For test [2], the target named is Son of sevenless homolog 2 (Homo sapiens, UniProt Q07890). As to the kind of experiment: Inhibition of N-terminal His10-tagged wild-type recombinant human SOS2 catalytic domain (564 to 1043 residues) expressed in Escherichia coli assessed as reduction in KRAS G12C mutant activation preincubated for 10 mins with KRAS followed by SOS2 addition measured after 30 mins in presence of EDA-GTP-DY-647P1 by HTRF analysis. A general note: Time-resolved FRET reads energy transfer from a long-lived donor to a nearby acceptor.
Sequence of Son of sevenless homolog 2 (Q07890 whole entry, looked up, stated change not applied, the tested form may be a part): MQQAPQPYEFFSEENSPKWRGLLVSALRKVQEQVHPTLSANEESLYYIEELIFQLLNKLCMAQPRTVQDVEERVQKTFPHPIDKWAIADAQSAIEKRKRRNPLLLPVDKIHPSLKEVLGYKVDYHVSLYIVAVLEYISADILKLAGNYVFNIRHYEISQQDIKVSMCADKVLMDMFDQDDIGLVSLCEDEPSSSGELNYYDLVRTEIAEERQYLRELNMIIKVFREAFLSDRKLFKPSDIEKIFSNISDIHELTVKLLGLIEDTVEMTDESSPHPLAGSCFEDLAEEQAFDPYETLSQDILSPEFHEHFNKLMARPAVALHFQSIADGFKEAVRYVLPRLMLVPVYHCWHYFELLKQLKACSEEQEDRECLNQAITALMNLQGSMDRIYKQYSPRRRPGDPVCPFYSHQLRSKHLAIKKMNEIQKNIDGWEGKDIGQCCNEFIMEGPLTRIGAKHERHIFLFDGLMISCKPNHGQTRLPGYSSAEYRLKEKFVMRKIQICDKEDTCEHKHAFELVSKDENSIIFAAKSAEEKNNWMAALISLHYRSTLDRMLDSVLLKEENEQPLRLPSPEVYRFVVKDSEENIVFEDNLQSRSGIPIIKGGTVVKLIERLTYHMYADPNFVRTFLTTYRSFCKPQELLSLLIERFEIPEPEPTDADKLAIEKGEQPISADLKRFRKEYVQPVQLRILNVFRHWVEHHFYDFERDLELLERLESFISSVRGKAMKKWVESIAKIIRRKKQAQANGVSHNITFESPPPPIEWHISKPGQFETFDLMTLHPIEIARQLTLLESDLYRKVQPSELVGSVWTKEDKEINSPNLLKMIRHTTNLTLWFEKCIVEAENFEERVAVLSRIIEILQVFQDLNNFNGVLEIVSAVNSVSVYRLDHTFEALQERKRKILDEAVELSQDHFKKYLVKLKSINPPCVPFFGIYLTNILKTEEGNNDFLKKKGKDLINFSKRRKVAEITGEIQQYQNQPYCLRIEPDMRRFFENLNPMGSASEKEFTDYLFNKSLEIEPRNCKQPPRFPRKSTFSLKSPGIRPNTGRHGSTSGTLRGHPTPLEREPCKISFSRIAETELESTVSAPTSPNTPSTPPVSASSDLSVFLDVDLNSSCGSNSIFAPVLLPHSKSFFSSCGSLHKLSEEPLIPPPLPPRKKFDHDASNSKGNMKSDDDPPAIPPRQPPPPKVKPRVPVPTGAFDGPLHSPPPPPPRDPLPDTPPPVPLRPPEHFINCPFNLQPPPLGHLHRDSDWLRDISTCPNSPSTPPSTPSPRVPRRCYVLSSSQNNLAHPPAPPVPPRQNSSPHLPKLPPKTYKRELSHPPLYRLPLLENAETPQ

Test [3] deals with T1, Guanine nucleotide exchange factor DBS (Homo sapiens, UniProt O15068).
T1 sequence (O15068 whole entry): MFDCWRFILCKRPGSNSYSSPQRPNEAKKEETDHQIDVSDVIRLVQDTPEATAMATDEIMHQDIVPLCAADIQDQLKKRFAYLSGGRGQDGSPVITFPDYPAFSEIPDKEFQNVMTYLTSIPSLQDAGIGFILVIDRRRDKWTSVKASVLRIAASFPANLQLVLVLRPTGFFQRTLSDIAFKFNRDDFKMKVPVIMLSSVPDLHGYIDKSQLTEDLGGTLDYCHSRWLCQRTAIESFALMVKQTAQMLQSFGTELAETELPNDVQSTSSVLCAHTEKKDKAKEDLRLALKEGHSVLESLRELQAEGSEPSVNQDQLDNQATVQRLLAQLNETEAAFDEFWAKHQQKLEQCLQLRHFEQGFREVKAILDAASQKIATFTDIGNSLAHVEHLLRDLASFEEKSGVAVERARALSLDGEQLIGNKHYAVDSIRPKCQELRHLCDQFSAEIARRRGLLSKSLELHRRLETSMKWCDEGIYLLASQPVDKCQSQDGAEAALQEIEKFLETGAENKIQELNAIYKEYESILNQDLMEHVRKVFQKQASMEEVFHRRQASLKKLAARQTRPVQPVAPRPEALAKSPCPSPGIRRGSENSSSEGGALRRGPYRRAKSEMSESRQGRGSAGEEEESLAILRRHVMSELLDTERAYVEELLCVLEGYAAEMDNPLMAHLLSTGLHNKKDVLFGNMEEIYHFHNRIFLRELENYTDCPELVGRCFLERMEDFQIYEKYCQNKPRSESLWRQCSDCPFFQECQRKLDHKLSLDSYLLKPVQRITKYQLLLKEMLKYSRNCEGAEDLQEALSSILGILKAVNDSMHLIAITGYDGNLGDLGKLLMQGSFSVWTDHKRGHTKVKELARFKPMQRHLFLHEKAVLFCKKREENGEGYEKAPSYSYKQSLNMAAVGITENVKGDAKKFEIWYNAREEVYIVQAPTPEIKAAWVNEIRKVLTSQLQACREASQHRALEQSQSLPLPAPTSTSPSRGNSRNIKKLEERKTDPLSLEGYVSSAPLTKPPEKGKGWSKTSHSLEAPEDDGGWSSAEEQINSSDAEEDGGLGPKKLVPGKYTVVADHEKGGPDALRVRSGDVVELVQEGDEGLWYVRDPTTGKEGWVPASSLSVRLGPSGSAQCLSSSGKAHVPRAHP
Briefly: Inhibition of human DBS assessed as reduction in CDC42 activation preincubated for 1 min with CDC42 followed by DBS addition measured after 20 mins in presence of EDA-GTP-DY-647P1 by HTRF analysis.

For test [4], the system named is Calu-1. As to the kind of experiment: Antiproliferative activity against human Calu-1 cells assessed as inhibition of cell viability incubated for 72 hrs by Cell Titer Glo assay. Format: functional, cell-based. Conditions: Calu-1, 72 h.
In test [5] the target is Tyrosine-protein kinase HCK (Homo sapiens) (UniProt P08631). As to the kind of experiment: Inhibition of HCK (unknown origin) assessed as residual activity at 1000 nM by KINOMEscan analysis relative to control.
Sequence of Tyrosine-protein kinase HCK (Homo sapiens) (P08631 2-526 limits assumed): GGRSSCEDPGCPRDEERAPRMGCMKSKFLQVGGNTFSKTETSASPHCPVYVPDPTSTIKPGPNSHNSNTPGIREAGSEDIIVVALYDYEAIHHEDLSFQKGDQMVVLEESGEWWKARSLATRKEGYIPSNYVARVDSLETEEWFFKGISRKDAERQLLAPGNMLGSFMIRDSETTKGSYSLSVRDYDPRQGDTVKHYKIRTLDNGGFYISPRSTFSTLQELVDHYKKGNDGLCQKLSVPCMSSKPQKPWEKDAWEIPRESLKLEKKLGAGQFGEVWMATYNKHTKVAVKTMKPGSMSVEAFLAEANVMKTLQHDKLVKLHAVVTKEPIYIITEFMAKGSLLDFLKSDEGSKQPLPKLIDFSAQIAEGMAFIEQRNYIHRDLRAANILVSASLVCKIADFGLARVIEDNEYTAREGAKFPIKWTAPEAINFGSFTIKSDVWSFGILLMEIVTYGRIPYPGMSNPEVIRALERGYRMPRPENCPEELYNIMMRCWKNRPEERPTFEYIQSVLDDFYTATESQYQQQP
In test [6] the target is Ribosomal protein S6 kinase alpha-3 (Homo sapiens) (UniProt P51812). Briefly: Inhibition of C-terminal RSK2 kinetic domain 2 (unknown origin) assessed as residual activity at 1000 nM by KINOMEscan analysis relative to control.
Test [7] addresses Serine/threonine-protein kinase/endoribonuclease IRE1 (Homo sapiens) (UniProt O75460). Briefly: Inhibition of ERN1 (unknown origin) assessed as residual activity at 1000 nM by KINOMEscan analysis relative to control.
In test [8] the test system is MOLM-13. As to the kind of experiment: Antiproliferative activity against human MOLM-13 cells assessed as inhibition of cell viability incubated for 72 hrs by Cell Titer Glo assay. As to conditions: MOLM-13, 72 h. Type of test: functional, cell-based.
Test [9] has as its target Transient receptor potential cation channel subfamily M member 6 (Homo sapiens) (UniProt Q9BX84). Briefly: Inhibition of TRPM6 (unknown origin) assessed as residual activity at 1000 nM by KINOMEscan analysis relative to control.
The target in test [10] is T2, Ephrin type-B receptor 3 (Homo sapiens) (UniProt P54753).
T2 sequence (whole entry): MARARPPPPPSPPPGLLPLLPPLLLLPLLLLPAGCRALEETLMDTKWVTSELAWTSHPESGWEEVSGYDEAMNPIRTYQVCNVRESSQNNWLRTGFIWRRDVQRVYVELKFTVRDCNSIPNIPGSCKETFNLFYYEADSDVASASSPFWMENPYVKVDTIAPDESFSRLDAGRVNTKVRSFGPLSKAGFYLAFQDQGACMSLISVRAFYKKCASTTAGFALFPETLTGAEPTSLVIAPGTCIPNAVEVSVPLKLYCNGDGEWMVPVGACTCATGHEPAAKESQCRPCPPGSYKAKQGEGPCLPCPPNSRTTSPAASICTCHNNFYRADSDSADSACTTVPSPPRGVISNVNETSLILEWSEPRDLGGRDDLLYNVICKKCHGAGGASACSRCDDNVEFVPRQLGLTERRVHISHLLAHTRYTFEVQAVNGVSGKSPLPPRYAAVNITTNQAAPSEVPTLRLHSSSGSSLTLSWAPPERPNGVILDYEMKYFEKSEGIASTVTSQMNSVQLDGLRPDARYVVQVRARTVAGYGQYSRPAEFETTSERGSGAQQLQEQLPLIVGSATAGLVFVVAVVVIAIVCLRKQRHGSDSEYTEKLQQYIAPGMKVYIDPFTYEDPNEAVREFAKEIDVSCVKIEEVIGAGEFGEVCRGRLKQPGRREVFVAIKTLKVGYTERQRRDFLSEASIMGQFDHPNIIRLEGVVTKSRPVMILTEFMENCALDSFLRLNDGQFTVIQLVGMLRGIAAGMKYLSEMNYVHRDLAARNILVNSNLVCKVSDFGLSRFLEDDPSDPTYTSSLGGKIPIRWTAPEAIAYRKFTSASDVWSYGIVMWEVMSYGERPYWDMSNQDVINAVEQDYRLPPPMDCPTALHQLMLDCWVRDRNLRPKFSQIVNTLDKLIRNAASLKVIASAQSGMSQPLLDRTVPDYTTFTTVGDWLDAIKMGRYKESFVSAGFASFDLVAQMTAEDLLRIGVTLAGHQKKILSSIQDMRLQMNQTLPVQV
Briefly: Inhibition of EPHB3 (unknown origin) assessed as residual activity at 1000 nM by KINOMEscan analysis relative to control.

Sequence of Epidermal growth factor receptor (P00533 whole entry, the tested form may be a part): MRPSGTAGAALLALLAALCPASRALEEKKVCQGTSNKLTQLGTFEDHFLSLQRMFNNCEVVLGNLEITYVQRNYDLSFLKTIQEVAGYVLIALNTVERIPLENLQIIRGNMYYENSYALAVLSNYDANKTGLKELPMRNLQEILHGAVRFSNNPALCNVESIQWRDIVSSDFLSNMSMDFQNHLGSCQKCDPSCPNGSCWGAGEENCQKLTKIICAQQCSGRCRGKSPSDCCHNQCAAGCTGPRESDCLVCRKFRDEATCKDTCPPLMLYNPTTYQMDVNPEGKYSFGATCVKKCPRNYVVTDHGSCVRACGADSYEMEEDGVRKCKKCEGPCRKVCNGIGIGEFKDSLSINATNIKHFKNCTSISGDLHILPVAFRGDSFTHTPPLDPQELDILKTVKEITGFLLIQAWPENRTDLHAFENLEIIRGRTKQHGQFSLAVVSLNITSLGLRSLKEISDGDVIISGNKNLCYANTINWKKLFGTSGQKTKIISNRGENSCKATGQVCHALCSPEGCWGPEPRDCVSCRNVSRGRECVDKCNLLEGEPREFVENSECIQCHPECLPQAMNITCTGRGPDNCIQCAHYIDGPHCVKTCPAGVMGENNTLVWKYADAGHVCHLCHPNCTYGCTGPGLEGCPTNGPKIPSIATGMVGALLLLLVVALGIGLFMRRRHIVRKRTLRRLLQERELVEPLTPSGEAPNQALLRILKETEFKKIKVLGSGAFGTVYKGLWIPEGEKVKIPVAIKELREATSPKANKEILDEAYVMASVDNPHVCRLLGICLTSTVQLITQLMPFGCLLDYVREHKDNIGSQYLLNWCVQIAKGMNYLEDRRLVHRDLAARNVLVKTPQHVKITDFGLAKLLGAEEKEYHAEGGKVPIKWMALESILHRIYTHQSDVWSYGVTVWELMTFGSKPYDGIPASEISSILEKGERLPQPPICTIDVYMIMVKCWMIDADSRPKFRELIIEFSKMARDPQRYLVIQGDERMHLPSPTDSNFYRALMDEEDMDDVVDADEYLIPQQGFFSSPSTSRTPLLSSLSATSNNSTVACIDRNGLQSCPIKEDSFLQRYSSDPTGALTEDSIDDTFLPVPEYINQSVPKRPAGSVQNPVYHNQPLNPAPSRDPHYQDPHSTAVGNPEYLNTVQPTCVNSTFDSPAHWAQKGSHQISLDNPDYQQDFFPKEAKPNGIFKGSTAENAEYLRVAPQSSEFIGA
Sequence of Transient receptor potential cation channel subfamily M member 6 (Homo sapiens) (Q9BX84 whole entry): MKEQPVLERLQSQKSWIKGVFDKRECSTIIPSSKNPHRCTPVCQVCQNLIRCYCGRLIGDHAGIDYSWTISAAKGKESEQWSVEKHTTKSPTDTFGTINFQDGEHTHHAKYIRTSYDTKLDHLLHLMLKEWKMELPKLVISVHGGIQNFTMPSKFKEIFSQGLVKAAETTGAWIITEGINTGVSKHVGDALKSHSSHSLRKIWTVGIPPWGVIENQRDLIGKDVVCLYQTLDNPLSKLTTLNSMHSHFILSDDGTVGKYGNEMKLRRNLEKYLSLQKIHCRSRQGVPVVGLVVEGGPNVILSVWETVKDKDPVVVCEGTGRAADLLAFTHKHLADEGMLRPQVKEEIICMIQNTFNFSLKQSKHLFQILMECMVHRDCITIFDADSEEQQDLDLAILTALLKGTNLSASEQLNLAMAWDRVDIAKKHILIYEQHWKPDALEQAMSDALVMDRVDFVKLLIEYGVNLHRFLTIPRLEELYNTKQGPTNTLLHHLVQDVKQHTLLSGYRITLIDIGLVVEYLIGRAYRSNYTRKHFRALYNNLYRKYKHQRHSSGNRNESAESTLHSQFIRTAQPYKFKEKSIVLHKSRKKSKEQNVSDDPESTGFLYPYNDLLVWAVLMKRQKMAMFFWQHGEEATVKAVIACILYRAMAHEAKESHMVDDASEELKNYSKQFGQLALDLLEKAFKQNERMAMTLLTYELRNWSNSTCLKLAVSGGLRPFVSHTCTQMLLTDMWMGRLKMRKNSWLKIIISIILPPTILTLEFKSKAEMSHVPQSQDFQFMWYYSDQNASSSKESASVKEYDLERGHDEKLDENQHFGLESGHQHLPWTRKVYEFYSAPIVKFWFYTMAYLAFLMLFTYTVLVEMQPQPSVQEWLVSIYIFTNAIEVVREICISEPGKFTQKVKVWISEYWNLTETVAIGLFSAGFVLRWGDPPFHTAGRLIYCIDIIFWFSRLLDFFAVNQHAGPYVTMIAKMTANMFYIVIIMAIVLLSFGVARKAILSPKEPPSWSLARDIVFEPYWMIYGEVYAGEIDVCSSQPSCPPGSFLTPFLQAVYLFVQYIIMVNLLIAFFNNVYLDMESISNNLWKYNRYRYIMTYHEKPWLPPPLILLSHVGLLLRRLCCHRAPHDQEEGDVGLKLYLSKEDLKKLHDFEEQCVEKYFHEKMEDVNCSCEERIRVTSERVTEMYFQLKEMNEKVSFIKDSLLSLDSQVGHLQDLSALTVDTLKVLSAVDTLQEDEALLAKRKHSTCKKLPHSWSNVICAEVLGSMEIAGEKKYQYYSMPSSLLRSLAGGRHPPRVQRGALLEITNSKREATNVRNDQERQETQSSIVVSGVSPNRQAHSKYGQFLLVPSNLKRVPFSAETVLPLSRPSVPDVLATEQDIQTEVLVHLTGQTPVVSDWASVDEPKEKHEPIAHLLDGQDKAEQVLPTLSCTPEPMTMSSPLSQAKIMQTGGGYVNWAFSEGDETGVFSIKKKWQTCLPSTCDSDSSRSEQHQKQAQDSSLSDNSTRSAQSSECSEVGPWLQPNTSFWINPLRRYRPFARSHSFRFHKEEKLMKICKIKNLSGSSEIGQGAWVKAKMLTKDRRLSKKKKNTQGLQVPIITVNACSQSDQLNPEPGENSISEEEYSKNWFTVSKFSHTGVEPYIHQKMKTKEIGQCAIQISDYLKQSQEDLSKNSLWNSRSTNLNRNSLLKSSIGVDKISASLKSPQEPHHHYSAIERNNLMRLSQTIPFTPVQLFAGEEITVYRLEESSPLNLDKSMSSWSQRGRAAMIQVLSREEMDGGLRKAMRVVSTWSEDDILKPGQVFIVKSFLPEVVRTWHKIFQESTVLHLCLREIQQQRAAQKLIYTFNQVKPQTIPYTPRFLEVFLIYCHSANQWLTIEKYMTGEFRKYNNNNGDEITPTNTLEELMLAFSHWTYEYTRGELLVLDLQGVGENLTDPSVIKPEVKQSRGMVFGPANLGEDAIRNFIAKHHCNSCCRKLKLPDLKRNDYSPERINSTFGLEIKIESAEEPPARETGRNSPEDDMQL

On to `COc1cc2nc(C)nc(NC(C)c3ccc(-c4cnc5n4CCC5)s3)c2cc1OC` (stereo not drawn), for which the pIC50 in test [1] is less than 4.70; in [2], less than 4.70; in test [3] it was less than 4.70; in test [4], 6.06.

`COc1cc2ncnc(N[C@H](C)c3cccc4ccccc34)c2cc1OC`: the pIC50 in [1] is 6.24; in test [8] it was 5.60; in test [2] it was less than 4.70; in [3], less than 4.70. Further, the Activity is 93% in [5]; 100% in test [6]; 92% in test [7]; 100% in test [9]; 100% in [10].

Take `CNCc1ccccc1-c1csc([C@@H](C)Nc2nc(C)nc3cc(OC)c(OC)cc23)c1` [BAY-293]: the pIC50 in [1] is less than 4.70; in test [8] it was 6.00; in test [2] it was less than 4.70; in test [3], less than 4.70; in test [4] it was 5.50.

`COc1cc2nc(C)nc(N[C@H](C)c3cccc(-c4cn[nH]c4)c3)c2cc1OC`: the pIC50 in test [1] was less than 4.70; in test [8], 5.45; in test [2] it was less than 4.70; in test [3], less than 4.70; in [4] it was 4.77. Moreover, the Activity in [5] was determined as 77%; in test [6] it was 100%; in test [7], 94%; in test [9], 84%; in test [10], 100%.

The values are drawn from ChEMBL document CHEMBL5678818, “Discovery of potent SOS1 inhibitors that block RAS activation via disruption of the RAS-SOS1 interaction” (Proc Natl Acad Sci U S A, 2019).
